Consider six compounds from article PMC10135378, “Synthesis of Novel N-Heterocyclic Carbene-Ruthenium (II) Complexes, “Precious” Tools with Antibacterial, Anticancer and Antioxidant Properties” (Antibiotics, 2023).

One assay deals with BALB/3T3 cells. Kind of assay: MTT assay, non-tumoral BALB/3T3 fibroblasts. Conditions: 72 h exposure, non-tumoral mouse embryonic fibroblasts. Type of assay: cell-based. The text has this:
Additionally, we investigated the selectivity of all the synthesized Ru-NHC complexes on the cancer cells by studying their capability to interfere with the growth of two non-tumoral cells, namely the MCF-10A and BALB/3T3 cells.
The adopted cells (breast cancer MCF-7 and MDA-MB-231 and human mammary epithelial MCF-10A cells) were purchased from American Type Culture Collection (ATCC, Manassas, VA, USA) and cultured as indicated. The mouse embryonic fibroblast BALB/3T3 and neuroblastoma SH-SY5Y were also obtained from American Type Culture Collection (ATCC, Manassas, VA, USA) and cultured in DMEM high glucose supplemented with 100 U mL^−1 penicillin/streptomycin and 10% bovine calf serum (BCS) or 10% fetal bovine serum (FBS), respectively.
MTT assay (Sigma Aldrich (St. Louis, MO, USA)) was used for the in vitro anticancer activity evaluation, as previously reported. The Ru-NHC complexes were employed at different concentrations (0.1–1–10–25–50–100 μM) for 72 h. The IC50 values were calculated from the percent (%) of control using GraphPad Prism 9 (GraphPad Software, La Jolla, CA, USA).
For orientation: Formazan colour is commonly taken as a measure of viable cells.

The next assay has as its target T1, human topoisomerase II (Homo sapiens, UniProt P11388).
T1 construct: purchased TopoGEN, Port Orange, FL
The experiment in a line: hTopo II decatenation assay. The format is biochemical. The conditions noted are these: 10 and 50 µM, 2 h at 37 °C, kDNA substrate. How it is done:
In Figure 4, only the results obtained at 50 μM concentration are reported (the same result was obtained at 10 μM) and as visible; under RANHC-V and -VI exposure, two bands related to the decatenation products at the bottom of the gel were detected (Figure 4, lanes 5 and 6), similarly to the CTRL reaction (Figure 4, lane 4).
Similarly, hTopoII decatenation assays were carried out incubating the kinetoplast DNA (kDNA) substrate with the hTopoII (TopoGEN, Port Orange, FL) and compounds RANHC-V and -VI or DMSO (CTRL) following the manufacturer’s procedures (TopoGEN, Port Orange, FL, USA), with some changes.
Figure 4 Human topoisomerase II decatenation assay. hTopo II was incubated with the vehicle alone (CTRL) or with the tested complexes RANHC-V and -VI at 50 µM for 2 h at 37 °C, using the kinetoplast DNA (kDNA) as the substrate. 1, linear DNA marker; 2, decatenated DNA marker; 3, kinetoplast DNA; 4, CTRL (DMSO); 5 and 6, Ru-NHC complexes RANHC-V and -VI (50 µM), respectively. The image is representative of three separate experiments.

The next assay deals with MDA-MB-231 cells. The experiment in a line: TUNEL assay, apoptosis. The conditions noted are these: complexes at their IC50 values, 24 h. Type of assay: cell-based, human. How it is done: Thus, using the TUNEL assay we determined whether the Ru-NHC complexes RANHC-V and -VI were able to trigger apoptosis in the MDA-MB-231 cells. The latter were first exposed to the Ru complexes, used at their IC50 values for 24 h, and then subjected to the rTdT enzyme, as indicated in the experimental section.
A TUNEL assay was used for cells apoptosis detection, following the manufacturer’s protocols (CF™488A TUNEL Assay Apoptosis Detection Kit, Biotium, Hayward, CA, USA), with some changes. Briefly, cells were seeded and then processed, as described. DAPI (0.2 μg/mL, Sigma Aldrich, Milan, Italy) staining was adopted for nuclei. A fluorescence microscope (Leica DM 6000) was used for fluorescence detection (20x magnification). LAS-X software was used to acquire and process all the images that are representative of three different experiments.
Figure 5 TUNEL assay. MDA-MB-231 breast cancer cells were treated with Ru-NHC complexes RANHC-V and -VI at their IC50 values or with the vehicle (CTRL) for 24 h. Then, cells were incubated with rTdT enzyme and then observed and imaged under an inverted fluorescence microscope at 20× magnification (see Materials and Methods section). Panels (A): DAPI (λex/λem = 350/460 nm); Panels (B): CF^TM488A (λex/λem = 490/515 nm); Panels (C): show the overlay. Fields are representative of three independent experiments.

For a further assay, the target named is T2, human topoisomerase I (Homo sapiens, UniProt P11387).
T2 construct: purchased TopoGEN, Port Orange, FL, USA
T2 sequence (P11387 1-765): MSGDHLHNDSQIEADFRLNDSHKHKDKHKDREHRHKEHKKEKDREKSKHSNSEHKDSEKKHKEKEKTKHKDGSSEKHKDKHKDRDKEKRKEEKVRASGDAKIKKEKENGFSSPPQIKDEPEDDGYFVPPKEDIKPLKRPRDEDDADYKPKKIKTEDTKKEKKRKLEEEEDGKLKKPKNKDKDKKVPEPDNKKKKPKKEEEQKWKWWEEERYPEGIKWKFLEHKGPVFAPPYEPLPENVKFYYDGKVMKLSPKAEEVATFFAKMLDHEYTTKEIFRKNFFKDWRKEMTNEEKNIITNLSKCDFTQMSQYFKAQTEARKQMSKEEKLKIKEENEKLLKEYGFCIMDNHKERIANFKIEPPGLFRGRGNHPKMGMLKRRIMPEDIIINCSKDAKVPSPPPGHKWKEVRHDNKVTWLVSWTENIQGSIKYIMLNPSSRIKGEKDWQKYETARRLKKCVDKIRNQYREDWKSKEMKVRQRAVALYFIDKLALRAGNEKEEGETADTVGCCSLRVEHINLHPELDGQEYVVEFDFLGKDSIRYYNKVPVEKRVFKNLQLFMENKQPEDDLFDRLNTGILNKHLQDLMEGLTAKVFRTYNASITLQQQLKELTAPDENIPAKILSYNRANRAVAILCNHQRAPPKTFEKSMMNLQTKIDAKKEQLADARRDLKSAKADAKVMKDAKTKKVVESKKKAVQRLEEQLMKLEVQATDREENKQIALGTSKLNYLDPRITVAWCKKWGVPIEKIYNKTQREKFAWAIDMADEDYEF
Kind of assay: hTopo I relaxation assay. The format is biochemical. Conditions: 10 µM, 2 h at 37 °C, supercoiled pHOT1 substrate. The text has this: We performed the hTopo I relaxation assay using as a substrate the supercoiled plasmid pHOT1 and exposing the enzyme to our selected complexes or vehicle. […] Indeed, in lanes 4 and 5, corresponding to the enzymatic reactions in the presence of complexes RANHC-V or -VI, only the supercoiled DNA was present, noticeable as a single band in the lower portion of the agarose gel. Contrarily, in the CTRL (vehicle) reaction (Figure 3, lane 3), multiple bands related to the relaxed DNA products were detected.
hTopoI relaxation assays were done using the supercoiled pHOT1 as substrate, with the recombinant hTopoI (TopoGEN, Port Orange, FL, USA) and compounds RANHC-V and -VI or DMSO (CTRL) following the manufacturer’s protocol (TopoGEN, Port Orange, FL, USA), with some changes.
Figure 3 Human topoisomerase I […] assay. hTopo I was incubated with the vehicle alone (CTRL) or with the tested complexes RANHC-V and -VI at 10 µM for 2 h at 37 °C, using the supercoiled DNA pHOT1 as substrate. 1, relaxed DNA marker; 2, pHOT1; 3, CTRL (DMSO); 4 and 5, Ru-NHC complexes RANHC-V and -VI (10 µM), respectively. The image is representative of three separate experiments.

T1 sequence (P11388 whole entry): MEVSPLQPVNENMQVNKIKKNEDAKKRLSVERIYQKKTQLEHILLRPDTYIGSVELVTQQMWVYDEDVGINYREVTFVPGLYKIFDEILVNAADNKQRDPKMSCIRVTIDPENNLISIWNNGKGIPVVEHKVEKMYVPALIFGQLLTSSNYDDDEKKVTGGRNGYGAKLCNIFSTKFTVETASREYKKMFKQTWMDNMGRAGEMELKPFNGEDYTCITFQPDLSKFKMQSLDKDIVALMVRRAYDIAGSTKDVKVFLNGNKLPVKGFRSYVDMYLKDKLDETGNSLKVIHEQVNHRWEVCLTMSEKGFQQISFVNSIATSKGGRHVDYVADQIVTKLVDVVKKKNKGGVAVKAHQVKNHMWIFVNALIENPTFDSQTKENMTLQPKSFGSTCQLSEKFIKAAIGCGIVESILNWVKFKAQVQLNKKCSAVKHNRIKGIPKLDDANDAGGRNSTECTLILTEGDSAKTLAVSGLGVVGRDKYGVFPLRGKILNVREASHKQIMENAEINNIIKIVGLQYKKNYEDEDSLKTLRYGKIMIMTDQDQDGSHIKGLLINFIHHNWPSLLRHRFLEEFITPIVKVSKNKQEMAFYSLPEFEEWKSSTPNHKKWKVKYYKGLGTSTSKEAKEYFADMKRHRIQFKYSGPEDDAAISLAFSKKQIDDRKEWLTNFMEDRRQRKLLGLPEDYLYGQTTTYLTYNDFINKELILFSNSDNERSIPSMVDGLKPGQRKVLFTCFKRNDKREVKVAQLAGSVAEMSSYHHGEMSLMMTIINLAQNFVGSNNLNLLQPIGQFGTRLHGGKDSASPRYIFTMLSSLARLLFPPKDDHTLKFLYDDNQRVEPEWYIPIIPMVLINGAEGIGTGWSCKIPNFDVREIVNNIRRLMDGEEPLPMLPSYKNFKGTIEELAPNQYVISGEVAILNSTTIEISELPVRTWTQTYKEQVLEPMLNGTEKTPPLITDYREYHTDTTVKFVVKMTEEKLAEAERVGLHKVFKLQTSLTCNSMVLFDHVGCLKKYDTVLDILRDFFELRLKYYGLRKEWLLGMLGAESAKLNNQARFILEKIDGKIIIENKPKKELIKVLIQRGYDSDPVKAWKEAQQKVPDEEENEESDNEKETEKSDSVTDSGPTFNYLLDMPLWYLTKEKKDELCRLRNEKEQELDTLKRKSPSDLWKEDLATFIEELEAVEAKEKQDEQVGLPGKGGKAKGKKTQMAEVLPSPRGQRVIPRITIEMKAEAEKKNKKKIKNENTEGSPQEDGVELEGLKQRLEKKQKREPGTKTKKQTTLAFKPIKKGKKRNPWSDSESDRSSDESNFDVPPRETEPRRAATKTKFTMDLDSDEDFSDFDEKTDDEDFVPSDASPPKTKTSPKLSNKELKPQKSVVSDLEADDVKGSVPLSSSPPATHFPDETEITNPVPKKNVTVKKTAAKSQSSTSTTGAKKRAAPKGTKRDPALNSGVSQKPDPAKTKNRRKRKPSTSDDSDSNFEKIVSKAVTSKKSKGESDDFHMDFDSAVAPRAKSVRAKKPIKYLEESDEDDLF

As for `CN1C=CN2CC(c3ccccc3)[O+](C)[Ru]([Cl])=[C]12.Cc1ccc(C(C)C)cc1.F[P-](F)(F)(F)(F)F` (stereo not drawn) [RANHC-III], the half-maximal inhibitory concentration (IC50) (commonly the concentration needed to halve the response being measured) in the assay on BALB/3T3 cells is greater than 100 µM.

As to `COC(Cn1ccn(C)[c]1=[Ru]([I])[I])c1ccccc1.Cc1ccc(C(C)C)cc1` (stereo not drawn) [RANHC-II], in the assay with BALB/3T3 cells, the half-inhibitory concentration (IC50) is greater than 100 µM.

As to `COC(Cn1ccn(C)[c]1=[Ru]1[O]C(=O)C(=O)[O]1)c1ccccc1.Cc1ccc(C(C)C)cc1` (stereo not drawn) [RANHC-IV], the half-maximal inhibitory concentration (IC50) in the assay on BALB/3T3 cells is greater than 100 µM.

In the case of `COC(Cn1ccn(C)[c]1=[Ru]([Cl])[Cl])c1ccccc1.Cc1ccc(C(C)C)cc1` (stereo not drawn) [RANHC-I], in the assay on BALB/3T3 cells, the half-maximal inhibitory concentration (IC50) is greater than 100 µM.

Take `COC(Cn1[c](=[Ru]([Cl])[Cl])n(C)c2ccccc21)c1ccccc1.Cc1ccc(C(C)C)cc1` (stereo not drawn) [RANHC-VI]: on human topoisomerase II, the “inhibition of hTopo II activity” value is given as “absence of any inhibitory activity”. Also, inhibition in the assay on BALB/3T3 cells was half-maximal at 39.1 ± 1.1 µM (IC50). For the same compound, the “apoptosis (TUNEL)” value in the assay with MDA-MB-231 cells is on record as “TUNEL-positive”. In addition, on human topoisomerase I, the “inhibition of hTopo I activity” value is “totally inhibit”.

Turning to `COC(Cn1c(Cl)c(Cl)n(C)[c]1=[Ru]([Cl])[Cl])c1ccccc1.Cc1ccc(C(C)C)cc1` (stereo not drawn) [RANHC-V], the “inhibition of hTopo II activity” value against human topoisomerase II is “absence of any inhibitory activity”. In the assay with BALB/3T3 cells, this compound showed a concentration for half-maximal inhibition (IC50) greater than 100 µM. For the same compound, the “apoptosis (TUNEL)” value in the assay on MDA-MB-231 cells is recorded as “TUNEL-positive”. The “inhibition of hTopo I activity” value against human topoisomerase I is recorded as “totally inhibit”.
